These results are taken from ChEMBL document CHEMBL5247649, “Comparative Efficacy and Selectivity of Pharmacological Inhibitors of DYRK and CLK Protein Kinases” (J Med Chem, 2023).

What is called IC50 is the midpoint of a concentration-inhibition curve. What is called Kd is the free concentration of one partner at which half of the binding sites on the other are occupied at equilibrium, for simple one-to-one binding.

Series [1] concerns the target Cyclin-dependent kinase 5/CDK5 activator 1 (Homo sapiens, UniProt Q00535). The experiment in a line: biochemical. The class given is cell-based, Sf9.
For series [2], the target named is Casein kinase I isoform epsilon (Homo sapiens, UniProt P49674). In words: biochemical. Format: cell-based, Sf9.
Series [3] addresses T1, Dual specificity tyrosine-phosphorylation-regulated kinase 3 (Homo sapiens, UniProt O43781).
T1 sequence (O43781 whole entry): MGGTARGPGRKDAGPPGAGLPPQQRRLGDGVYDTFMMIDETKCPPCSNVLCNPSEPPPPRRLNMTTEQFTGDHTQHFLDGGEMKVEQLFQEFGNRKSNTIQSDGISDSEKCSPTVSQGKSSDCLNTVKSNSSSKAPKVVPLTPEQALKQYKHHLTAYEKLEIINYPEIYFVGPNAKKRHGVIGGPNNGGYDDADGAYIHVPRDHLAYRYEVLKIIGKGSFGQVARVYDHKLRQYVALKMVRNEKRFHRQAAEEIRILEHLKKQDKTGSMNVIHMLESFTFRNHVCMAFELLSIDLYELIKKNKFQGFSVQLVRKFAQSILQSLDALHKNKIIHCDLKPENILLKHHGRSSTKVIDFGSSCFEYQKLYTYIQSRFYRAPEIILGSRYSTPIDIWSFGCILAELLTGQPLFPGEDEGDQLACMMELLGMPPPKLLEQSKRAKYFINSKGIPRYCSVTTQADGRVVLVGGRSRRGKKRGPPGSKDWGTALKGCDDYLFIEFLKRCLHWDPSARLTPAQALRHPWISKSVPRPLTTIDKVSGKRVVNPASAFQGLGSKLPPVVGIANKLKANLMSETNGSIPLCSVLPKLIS
The experiment in a line: biochemical. The class given is cell-based, Sf9.

A further series in a line: in vitro. The conditions noted are these: mouse, ht-22.
The target in series [4] is Dual specificity protein kinase CLK3 (Homo sapiens, UniProt P49761). The experiment in a line: biochemical. The class given is cell-based, Sf9.
Series [5] deals with Glycogen synthase kinase-3 beta (Homo sapiens, UniProt P49841). The experiment in a line: biochemical. The class given is cell-based, Sf9.
The target in series [6] is T2, Dual specificity tyrosine-phosphorylation-regulated kinase 2 (Homo sapiens, UniProt Q92630).
T2 sequence (Q92630 whole entry): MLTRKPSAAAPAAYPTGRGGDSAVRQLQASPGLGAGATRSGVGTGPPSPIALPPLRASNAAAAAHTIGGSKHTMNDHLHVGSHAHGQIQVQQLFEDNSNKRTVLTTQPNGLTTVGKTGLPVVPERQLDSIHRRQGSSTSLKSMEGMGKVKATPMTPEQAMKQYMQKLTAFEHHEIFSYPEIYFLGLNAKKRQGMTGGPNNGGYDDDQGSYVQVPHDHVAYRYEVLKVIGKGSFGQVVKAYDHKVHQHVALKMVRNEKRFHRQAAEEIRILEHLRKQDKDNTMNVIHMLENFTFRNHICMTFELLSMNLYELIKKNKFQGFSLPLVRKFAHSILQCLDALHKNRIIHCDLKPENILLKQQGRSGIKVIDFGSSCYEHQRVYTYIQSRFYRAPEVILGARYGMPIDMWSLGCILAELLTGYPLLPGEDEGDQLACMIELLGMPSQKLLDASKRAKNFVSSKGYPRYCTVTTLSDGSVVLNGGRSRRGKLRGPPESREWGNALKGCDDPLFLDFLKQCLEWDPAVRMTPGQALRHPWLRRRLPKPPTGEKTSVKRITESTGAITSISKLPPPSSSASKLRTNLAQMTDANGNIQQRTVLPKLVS
In words: biochemical. The class given is cell-based, Sf9.

For series [7], the target named is Dual specificity protein kinase CLK2 (Homo sapiens, UniProt P49760). The experiment in a line: biochemical.
Series [8] has as its target T3, Dual specificity protein kinase CLK1 (Homo sapiens, UniProt P49759). The experiment in a line: biochemical. Format: cell-based, Sf9.
Series [9] deals with T4, Dual specificity tyrosine-phosphorylation-regulated kinase 4 (Homo sapiens, UniProt Q9NR20).
T4 sequence (Q9NR20 whole entry): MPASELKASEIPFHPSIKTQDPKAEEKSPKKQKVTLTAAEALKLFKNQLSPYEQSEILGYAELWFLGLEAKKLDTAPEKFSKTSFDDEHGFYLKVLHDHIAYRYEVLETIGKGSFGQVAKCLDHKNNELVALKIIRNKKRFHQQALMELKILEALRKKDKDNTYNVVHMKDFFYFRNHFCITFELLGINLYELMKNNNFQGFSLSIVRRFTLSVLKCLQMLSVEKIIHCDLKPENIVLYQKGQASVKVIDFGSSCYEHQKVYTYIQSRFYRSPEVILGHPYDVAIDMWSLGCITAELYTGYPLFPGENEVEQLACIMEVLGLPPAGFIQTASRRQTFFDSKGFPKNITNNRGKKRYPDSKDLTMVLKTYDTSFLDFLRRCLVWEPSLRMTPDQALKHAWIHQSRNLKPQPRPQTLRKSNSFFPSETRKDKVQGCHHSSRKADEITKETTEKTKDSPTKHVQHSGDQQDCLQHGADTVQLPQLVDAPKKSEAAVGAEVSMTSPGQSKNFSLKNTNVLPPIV
In words: biochemical. Format: cell-based, Sf9.

Series [10] concerns the target Dual specificity protein kinase CLK4 (Homo sapiens, UniProt Q9HAZ1). The experiment in a line: biochemical.
Series [11] concerns the target T3, Dual specificity protein kinase CLK1. The experiment in a line: biochemical. Format: cell-based, Sf9. The conditions noted are these: read-out: IC50.
Series [12] has the same target.

Sequence of Glycogen synthase kinase-3 beta (P49841 whole entry): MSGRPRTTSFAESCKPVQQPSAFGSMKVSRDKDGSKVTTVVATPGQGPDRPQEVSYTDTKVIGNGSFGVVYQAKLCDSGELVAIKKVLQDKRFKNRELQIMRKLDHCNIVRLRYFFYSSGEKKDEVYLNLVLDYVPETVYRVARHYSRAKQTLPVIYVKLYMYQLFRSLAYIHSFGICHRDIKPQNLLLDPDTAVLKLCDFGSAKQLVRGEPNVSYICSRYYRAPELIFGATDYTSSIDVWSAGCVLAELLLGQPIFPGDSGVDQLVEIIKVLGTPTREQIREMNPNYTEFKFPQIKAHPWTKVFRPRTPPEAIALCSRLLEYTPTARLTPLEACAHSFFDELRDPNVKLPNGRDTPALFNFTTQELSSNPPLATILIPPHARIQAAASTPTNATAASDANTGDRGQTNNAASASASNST
Sequence of Dual specificity protein kinase CLK3 (P49761 whole entry): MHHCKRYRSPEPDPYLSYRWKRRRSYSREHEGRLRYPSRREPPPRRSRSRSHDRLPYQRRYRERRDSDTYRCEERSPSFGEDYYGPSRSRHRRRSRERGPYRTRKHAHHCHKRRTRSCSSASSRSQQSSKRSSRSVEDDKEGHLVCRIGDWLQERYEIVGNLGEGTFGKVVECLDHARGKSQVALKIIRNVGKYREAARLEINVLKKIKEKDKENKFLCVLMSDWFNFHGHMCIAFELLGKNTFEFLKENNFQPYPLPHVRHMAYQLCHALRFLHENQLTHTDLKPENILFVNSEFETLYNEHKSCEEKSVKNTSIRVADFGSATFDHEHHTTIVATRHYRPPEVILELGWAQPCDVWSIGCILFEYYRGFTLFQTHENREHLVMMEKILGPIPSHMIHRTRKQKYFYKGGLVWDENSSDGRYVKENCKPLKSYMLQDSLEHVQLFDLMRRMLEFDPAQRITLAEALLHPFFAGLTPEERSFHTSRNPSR
Sequence of Casein kinase I isoform epsilon (P49674 whole entry, canonical isoform): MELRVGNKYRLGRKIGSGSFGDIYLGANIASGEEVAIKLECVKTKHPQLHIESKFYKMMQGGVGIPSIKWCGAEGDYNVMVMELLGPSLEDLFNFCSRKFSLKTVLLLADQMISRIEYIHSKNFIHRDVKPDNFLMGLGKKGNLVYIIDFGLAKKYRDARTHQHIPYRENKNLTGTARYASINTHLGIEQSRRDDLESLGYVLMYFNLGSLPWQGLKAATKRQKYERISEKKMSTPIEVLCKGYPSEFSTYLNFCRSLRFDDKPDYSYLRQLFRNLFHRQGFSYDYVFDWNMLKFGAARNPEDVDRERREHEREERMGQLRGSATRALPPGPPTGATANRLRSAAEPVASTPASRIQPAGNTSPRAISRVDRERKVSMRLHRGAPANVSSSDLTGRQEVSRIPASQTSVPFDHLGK
Sequence of Dual specificity protein kinase CLK2 (P49760 whole entry): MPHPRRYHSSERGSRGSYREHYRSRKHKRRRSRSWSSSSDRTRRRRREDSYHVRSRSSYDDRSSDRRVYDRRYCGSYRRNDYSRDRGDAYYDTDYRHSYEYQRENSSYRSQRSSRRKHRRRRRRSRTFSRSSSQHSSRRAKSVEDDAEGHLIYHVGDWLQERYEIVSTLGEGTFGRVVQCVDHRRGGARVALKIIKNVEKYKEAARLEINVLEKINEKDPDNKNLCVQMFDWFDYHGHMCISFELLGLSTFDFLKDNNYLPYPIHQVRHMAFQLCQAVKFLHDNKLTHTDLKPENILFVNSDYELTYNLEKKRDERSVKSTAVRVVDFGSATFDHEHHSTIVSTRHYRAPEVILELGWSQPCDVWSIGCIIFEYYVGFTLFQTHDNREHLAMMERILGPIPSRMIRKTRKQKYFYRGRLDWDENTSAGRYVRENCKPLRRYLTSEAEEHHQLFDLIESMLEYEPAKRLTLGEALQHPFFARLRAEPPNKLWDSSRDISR
Sequence of Cyclin-dependent kinase 5/CDK5 activator 1 (Q00535 whole entry, canonical isoform): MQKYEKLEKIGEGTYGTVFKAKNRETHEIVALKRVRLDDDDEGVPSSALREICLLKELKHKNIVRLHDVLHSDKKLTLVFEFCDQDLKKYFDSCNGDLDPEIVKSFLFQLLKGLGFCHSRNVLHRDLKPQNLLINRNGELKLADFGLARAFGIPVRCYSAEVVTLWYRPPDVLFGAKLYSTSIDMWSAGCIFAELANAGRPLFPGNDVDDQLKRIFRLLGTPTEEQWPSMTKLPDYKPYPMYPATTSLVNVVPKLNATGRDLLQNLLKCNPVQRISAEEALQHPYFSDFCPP
Sequence of Cyclin-dependent kinase 5/CDK5 activator 1 (Q15078 whole entry, further chain, canonical isoform): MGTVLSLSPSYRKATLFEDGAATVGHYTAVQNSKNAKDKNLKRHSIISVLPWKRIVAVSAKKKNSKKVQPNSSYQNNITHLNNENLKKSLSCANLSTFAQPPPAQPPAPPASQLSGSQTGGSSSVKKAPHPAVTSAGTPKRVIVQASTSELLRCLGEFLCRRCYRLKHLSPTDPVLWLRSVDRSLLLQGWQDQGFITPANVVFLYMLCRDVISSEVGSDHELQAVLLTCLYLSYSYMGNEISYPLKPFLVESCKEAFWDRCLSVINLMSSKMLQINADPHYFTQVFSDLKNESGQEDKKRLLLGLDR
Sequence of Dual specificity protein kinase CLK4 (Q9HAZ1 whole entry): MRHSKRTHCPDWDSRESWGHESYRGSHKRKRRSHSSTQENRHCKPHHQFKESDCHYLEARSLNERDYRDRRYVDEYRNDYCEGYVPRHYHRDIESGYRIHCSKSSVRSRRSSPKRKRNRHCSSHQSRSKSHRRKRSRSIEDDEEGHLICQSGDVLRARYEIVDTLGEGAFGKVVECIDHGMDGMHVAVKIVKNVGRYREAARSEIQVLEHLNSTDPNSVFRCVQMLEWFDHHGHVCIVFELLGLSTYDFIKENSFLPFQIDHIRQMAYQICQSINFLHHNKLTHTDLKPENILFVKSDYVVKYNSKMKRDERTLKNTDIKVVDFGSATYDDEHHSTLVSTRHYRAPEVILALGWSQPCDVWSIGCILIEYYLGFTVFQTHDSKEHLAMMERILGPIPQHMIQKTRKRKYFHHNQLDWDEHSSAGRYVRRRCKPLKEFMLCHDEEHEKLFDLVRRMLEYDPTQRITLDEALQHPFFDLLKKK
T3 sequence (P49759 whole entry): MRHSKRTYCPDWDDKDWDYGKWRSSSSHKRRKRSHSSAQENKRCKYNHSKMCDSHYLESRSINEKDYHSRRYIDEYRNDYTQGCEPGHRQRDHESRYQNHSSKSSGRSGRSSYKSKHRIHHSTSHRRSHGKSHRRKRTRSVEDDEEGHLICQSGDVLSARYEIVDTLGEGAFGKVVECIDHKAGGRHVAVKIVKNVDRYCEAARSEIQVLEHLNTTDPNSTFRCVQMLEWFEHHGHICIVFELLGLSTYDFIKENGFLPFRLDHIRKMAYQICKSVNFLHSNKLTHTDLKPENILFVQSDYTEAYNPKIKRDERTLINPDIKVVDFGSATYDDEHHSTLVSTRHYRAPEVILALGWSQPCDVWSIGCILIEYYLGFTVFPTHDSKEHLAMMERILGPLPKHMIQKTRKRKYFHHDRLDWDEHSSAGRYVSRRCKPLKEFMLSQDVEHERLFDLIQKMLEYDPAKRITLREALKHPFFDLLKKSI

Consider `COc1ccc(-n2c(C)c([N+](=O)[O-])c3ccc(O)cc32)cc1`, for which the IC50 in series [1], in series [2] and in series [3] was more than 10 µM throughout. The same compound displayed an IC50 at 48 h in the series “in vitro” of more than 100 µM.
For the compound `COc1ccc(/C=C2\SC(=S)NC2=O)cc1C#C[Si](C)(C)C`, the IC50 in [4] is 7.23 µM; in series [5], more than 10 µM; in series [1], more than 10 µM; in series [6] it was more than 10 µM; in series [7] it was 8.41 µM; in series [2], more than 10 µM. The IC50 in [8] is 8.31 µM; in [9] it was more than 10 µM; in series [10], more than 10 µM; in [3] it was more than 10 µM. Besides, the IC50 at 48 h in “in vitro” worked out at 64.8 µM.
`CN1CCN(c2cc(C(=O)Nc3cc4cc(-c5cnn(C)c5)ccc4cn3)ccn2)CC1`: the IC50 came out at 3.96 µM in series [1]; 0.0091 µM in series [11]; 3.01 µM in series [2]; 0.0071 µM in series [8]; 0.0043 µM in series [10]. Further, the Kd in [12] stood at 18 pM. For the same compound, it took 0.18 µM to reach half-maximal inhibition in “in vitro” (IC50 at 48 h).
For `Cc1nc2ccc(-c3cc(N)nc(N)c3)nc2n1CC(F)(F)F`, the concentration for half-maximal inhibition (IC50) in series [4] amounted to 1.11 µM; in [1] it was 0.414 µM; in [6] it was 0.0088 µM; in series [7] it was 0.0247 µM; in [2] it was 1.77 µM; in [9] it was 0.426 µM. The IC50 in series [10] was 0.0162 µM; in [3], more than 10 µM. The compound further registered an IC50 at 48 h in the series “in vitro” of 7.7 µM.
As for `COc1ccc2nc3c(CO)cc(OC)cc3c(SC[C@H]3CCNC3)c2c1`, the IC50 in series [4] was 6.5 µM; in [5], more than 10 µM; in [1] it was more than 10 µM; in series [7], 4.29 µM; in series [2] it was more than 10 µM; in series [8], 1.25 µM. The IC50 in series [9] came to 1.93 µM; in [10], 0.537 µM. The IC50 at 48 h in “in vitro” was 14.7 µM.
`COc1ccc2sc(-c3cncc(NC(C)=O)c3)nc2c1`: the 50% inhibitory concentration (IC50) in series [4] was more than 10 µM; in [5], more than 10 µM; in series [1], more than 10 µM; in series [11], 0.385 µM; in series [6], 1.46 µM; in series [7], 4.41 µM. Moreover, the IC50 in series [2] is more than 10 µM; in series [8] it was 0.572 µM; in series [9], more than 10 µM; in series [10], 0.34 µM; in series [3], more than 10 µM. The compound also came in with an IC50 at 48 h in the series “in vitro” of 100 µM.
In series [7], `[H]/N=C(\N/C(=N/[H])NCCCCCCNC(=N)NC(=N)Nc1ccc(Cl)cc1)Nc1ccc(Cl)cc1` [CHLORHEXIDINE] came in with a 50% inhibitory concentration (IC50) of 9.16 µM. Also, it took 5.6 µM to reach half-maximal inhibition in the series “in vitro” (IC50 at 48 h).
Turning to `COc1ccc2c(c1)[nH]c1c(C)nccc12` [HARMINE], the IC50 in series [4] is 8.81 µM; in series [6], 3.17 µM; in series [7], 1.15 µM; in [9], 8.36 µM; in series [10] it was 0.102 µM; in series [3] it was 2.86 µM. This compound showed an IC50 at 48 h in the series “in vitro” of 56.5 µM.
Turning to `CNCc1ccc(-c2[nH]c3cc(F)cc4c3c2CCNC4=O)cc1` [RUCAPARIB], the IC50 in [4], in series [6], in series [7], in [2], in [8] and in series [9] was more than 10 µM each time. For the same compound, the IC50 in series [10] is more than 10 µM; in series [3], 8.03 µM. Also, in “in vitro”, the IC50 at 48 h turned out to be 57 µM.
`O=C(O)c1ccc2c(c1)nc(Nc1cccc(Cl)c1)c1ccncc12` [SILMITASERTIB]: the IC50 was 0.0774 µM in series [4]; more than 10 µM in series [1]; 0.0992 µM in series [6]; more than 10 µM in series [2]; 1.52 µM in series [9]; 0.0026 µM in series [10]. For the same compound, half-maximal inhibition in series [3] (IC50) was put at 0.0308 µM. For the same compound, in “in vitro”, the midpoint of inhibition, the IC50 at 48 h, lay at 21.3 µM.
